PMC8811472, “Systematic In Vitro Evaluation of a Library of Approved and Pharmacologically Active Compounds for the Identification of Novel Candidate Drugs for KMT2A-Rearranged Leukemia” (Frontiers in Oncology, 2022)

Experiments:
[1] = tested on: THP-1 and REH versus 2-Cl-ATP-sensitive KMT2A-r cells; test: Resazurin-based viability assays of nucleoside analogs in leukemia cell line panel; parameters: species or system human
Protocol: (§1) The cytotoxicity of drugs was assessed through resazurin-based assays and the inhibitory concentration resulting in 50% reduction of cell survival relative to control (IC50) was calculated as previously described ([7]). In synergy studies, cells were exposed to a dilution series of compounds, as single agents or in combination, in resazurin-based assays (72 hours) as described ([8]–[10]). The occurrence of synergy was determined with the Bliss Independence model as previously described ([8]–[10]). Bliss Prediction curves indicated the predicted percentage viability of the cells when exposed to the combination of compounds if both compounds work additively together. Synergy was visualised as the presence of a lower cell viability upon combination of two compounds compared to the viability predicted based on the presence of an additive effect of the compounds (i.e., the viability curve of the combination runs below the Bliss Prediction curve). The percentage of apoptotic cells was assessed by annexin V and 7-Aminoactinomycin D (7-AAD) (BD Biosciences, Australia) flow cytometry as previously described ([7]).

U937 cells = test: 72-hour resazurin-based cytotoxicity assay, U937; type: cell-based, human; conditions: Homo sapiens, U-937, U937, CALM-AF10, AML
Protocol: (§2) All cell lines used in this study were mycoplasma-free and have been authenticated using STR profiling. Cells were cultured as previously described ([7], [8]). Characteristics of the leukemia cell lines used in this study are described in Supplementary Table 1 . Peripheral blood mononuclear cells from healthy donors were purchased from Australian Red Cross.
as §1, with “The percentage of apoptotic cells was assessed by annexin V and 7-Aminoactinomycin D (7-AAD) (BD Biosciences, Australia) flow cytometry as previously described ([7]).” left out

KP-MO-TS cells = test: 72-hour resazurin-based cytotoxicity assay, KP-MO-TS; type: cell-based, human; conditions: Homo sapiens, CALM-AF10, AML
Protocol: as §2
as §1, with “The percentage of apoptotic cells was assessed by annexin V and 7-Aminoactinomycin D (7-AAD) (BD Biosciences, Australia) flow cytometry as previously described ([7]).” left out

PER-485 cells [2] = test: 72-hour resazurin-based cytotoxicity assay, PER-485; type: cell-based, human; conditions: Homo sapiens, PER-485, KMT2A-r t(4;11), infant ALL derived
Protocol: as §2, §1

PER-490 cells = test: 72-hour resazurin-based cytotoxicity assay, PER-490; type: cell-based, human; conditions: Homo sapiens, PER-490, KMT2A-r t(4;11), infant ALL
Protocol: as §2
as §1, with “The percentage of apoptotic cells was assessed by annexin V and 7-Aminoactinomycin D (7-AAD) (BD Biosciences, Australia) flow cytometry as previously described ([7]).” left out

THP-1 cells = test: 72-hour resazurin-based cytotoxicity assay, THP-1; type: cell-based, human; conditions: Homo sapiens, THP-1, KMT2A-r t(9;11), infant AML
Protocol: as §2, §1

PER-703 cells = test: 72-hour resazurin-based cytotoxicity assay, PER-703; type: cell-based, human; conditions: Homo sapiens, PER-703, KMT2A-r t(1;11), infant ALL derived
Protocol: as §2
as §1, with “The percentage of apoptotic cells was assessed by annexin V and 7-Aminoactinomycin D (7-AAD) (BD Biosciences, Australia) flow cytometry as previously described ([7]).” left out

PER-785 cells = test: 72-hour resazurin-based cytotoxicity assay, PER-785; type: cell-based, human; conditions: Homo sapiens, PER-785, KMT2A-r t(4;11), infant ALL
Protocol: as §2
as §1, with “The percentage of apoptotic cells was assessed by annexin V and 7-Aminoactinomycin D (7-AAD) (BD Biosciences, Australia) flow cytometry as previously described ([7]).” left out

PER-826 cells = test: 72-hour resazurin-based cytotoxicity assay, PER-826; type: cell-based, human; conditions: Homo sapiens, PER-826, KMT2A-r complex t(11;19), infant ALL
Protocol: as §2
as §1, with “The percentage of apoptotic cells was assessed by annexin V and 7-Aminoactinomycin D (7-AAD) (BD Biosciences, Australia) flow cytometry as previously described ([7]).” left out

KOPN-8 cells = test: 72-hour resazurin-based cytotoxicity assay, KOPN-8; parameters: species or system human; conditions: Homo sapiens, KOPN-8, KMT2A-r t(11;19), infant pre-B cell ALL
Protocol: as §2
as §1, with “The percentage of apoptotic cells was assessed by annexin V and 7-Aminoactinomycin D (7-AAD) (BD Biosciences, Australia) flow cytometry as previously described ([7]).” left out

MOLM-13 cells = test: 72-hour resazurin-based cytotoxicity assay, MOLM-13; type: cell-based, human; conditions: Homo sapiens, MOLM-13, KMT2A-r t(9;11), AML
Protocol: as §2, §1

MV4;11 cells = test: 72-hour resazurin-based cytotoxicity assay, MV4;11; type: cell-based, human; conditions: Homo sapiens, MV4;11, KMT2A-r t(4;11), childhood AML
Protocol: as §2
as §1, with “The percentage of apoptotic cells was assessed by annexin V and 7-Aminoactinomycin D (7-AAD) (BD Biosciences, Australia) flow cytometry as previously described ([7]).” left out

SEMK2 cells = test: 72-hour resazurin-based cytotoxicity assay, SEMK2; parameters: species or system human; conditions: Homo sapiens, SEMK2, KMT2A-r t(4;11), pre-B cell childhood ALL
Protocol: as §2, §1

RS4;11 cells = test: 72-hour resazurin-based cytotoxicity assay, RS4;11; parameters: species or system human; conditions: RS4;11, KMT2A-r t(4;11), pre-B cell ALL
Protocol: as §2, §1

CEM cells = test: 72-hour resazurin-based cytotoxicity assay, CEM; parameters: species or system human; conditions: Homo sapiens, CCRF-CEM, KMT2A-wt, childhood T-cell ALL
Protocol: as §2, §1

REH cells = test: 72-hour resazurin-based cytotoxicity assay, REH; parameters: species or system human; conditions: Homo sapiens, KMT2A-wt, pre-B cell ALL
Protocol: as §2, §1

Jurkat cells = test: 72-hour resazurin-based cytotoxicity assay, Jurkat; parameters: species or system human; conditions: Homo sapiens, KMT2A-wt, childhood T-cell ALL
Protocol: as §2, §1

KELLY cells = test: 72-hour resazurin-based cytotoxicity assay, KELLY; type: cell-based, human; conditions: Homo sapiens, neuroblastoma
Protocol: as §2
as §1, with “The percentage of apoptotic cells was assessed by annexin V and 7-Aminoactinomycin D (7-AAD) (BD Biosciences, Australia) flow cytometry as previously described ([7]).” left out

BE(2)C cells = test: 72-hour resazurin-based cytotoxicity assay, BE(2)C; type: cell-based, human; conditions: Homo sapiens, childhood neuroblastoma
Protocol: as §2
as §1, with “The percentage of apoptotic cells was assessed by annexin V and 7-Aminoactinomycin D (7-AAD) (BD Biosciences, Australia) flow cytometry as previously described ([7]).” left out

HEY cells = test: 72-hour resazurin-based cytotoxicity assay, HEY; type: cell-based, human; conditions: Homo sapiens, ovarian carcinoma
Protocol: as §2
as §1, with “The percentage of apoptotic cells was assessed by annexin V and 7-Aminoactinomycin D (7-AAD) (BD Biosciences, Australia) flow cytometry as previously described ([7]).” left out

27/87 cells = test: 72-hour resazurin-based cytotoxicity assay, 27/87; type: cell-based, human; conditions: Homo sapiens, 27/87, endometrioid ovarian cancer
Protocol: as §2
as §1, with “The percentage of apoptotic cells was assessed by annexin V and 7-Aminoactinomycin D (7-AAD) (BD Biosciences, Australia) flow cytometry as previously described ([7]).” left out

MCF-7 cells = test: 72-hour resazurin-based cytotoxicity assay, MCF-7; type: cell-based, human; conditions: Homo sapiens, MCF7, MCF-7, breast adenocarcinoma
Protocol: as §2
as §1, with “The percentage of apoptotic cells was assessed by annexin V and 7-Aminoactinomycin D (7-AAD) (BD Biosciences, Australia) flow cytometry as previously described ([7]).” left out

H460 cells = test: 72-hour resazurin-based cytotoxicity assay, H460; type: cell-based, human; conditions: Homo sapiens, NCI-H460, H460, lung carcinoma
Protocol: as §2
as §1, with “The percentage of apoptotic cells was assessed by annexin V and 7-Aminoactinomycin D (7-AAD) (BD Biosciences, Australia) flow cytometry as previously described ([7]).” left out

LNCaP cells = test: 72-hour resazurin-based cytotoxicity assay, LNCaP; type: cell-based, human; conditions: Homo sapiens, prostate carcinoma
Protocol: as §2
as §1, with “The percentage of apoptotic cells was assessed by annexin V and 7-Aminoactinomycin D (7-AAD) (BD Biosciences, Australia) flow cytometry as previously described ([7]).” left out

MRC-5 cells = test: 72-hour resazurin-based cytotoxicity assay, MRC-5; type: cell-based, human; conditions: Homo sapiens, MRC5, MRC-5, non-malignant, normal lung
Protocol: as §2, §1

WI-38 cells = test: 72-hour resazurin-based cytotoxicity assay, WI-38; type: cell-based, human; conditions: Homo sapiens, WI-38, non-malignant, normal lung
Protocol: as §2
as §1, with “The percentage of apoptotic cells was assessed by annexin V and 7-Aminoactinomycin D (7-AAD) (BD Biosciences, Australia) flow cytometry as previously described ([7]).” left out

[3] = tested on: peripheral blood mononuclear cells from healthy donors; test: 72-hour resazurin-based viability assay, PBMC from healthy donors; type: cell-based, human; conditions: Homo sapiens, PBMC, 72 h, 72 h resazurin
Protocol: as §2, §1

[4] = tested on: KMT2A-r and CALM-AF10 translocated leukemia cell lines; test: Cytotoxicity in expanded cell line panel (range over sensitive lines); type: cell-based; conditions: Homo sapiens; 9 out of 11 KMT2A-r leukemia cell lines
Protocol: as §2
as §1, with “The percentage of apoptotic cells was assessed by annexin V and 7-Aminoactinomycin D (7-AAD) (BD Biosciences, Australia) flow cytometry as previously described ([7]).” left out

PER-485 cells [5] = test: Annexin V/7-AAD flow cytometry, PER-485; type: cell-based, human; conditions: KMT2A-r leukemia cells (PER-485)
Protocol: as §1

[6] = tested on: KMT2A-r PER-485 and KMT2A-wt REH cells; test: 72-hour resazurin-based viability assay, PER-485 versus REH; type: cell-based, human
Protocol: as §1

With `Nc1nc(Cl)nc2c1ncn2[C@@H]1O[C@H](CO)[C@@H](O)[C@H]1O` [2-CADO, 2-chloroadenosine] the “response of 2-Cl-ATP-resistant cell lines THP-1 and REH compared with 2-Cl-ATP-sensitive KMT2A-r cells” value [1] was “less responsive”.
`Nc1nc(Cl)nc2c1ncn2[C@@H]1O[C@H](COP(=O)(O)OP(=O)(O)OP(=O)(O)O)[C@@H](O)[C@H]1O` [2-Cl-ATP, 2-chloroadenosine triphosphate] was tested, and the IC50 (U937 cells) was 3.5 µM, the IC50 (KP-MO-TS cells) was 4.4 µM and the IC50 (PER-485 cells [2]) was 2.5 µM. The IC50 (PER-490 cells) was 4.5 µM, the IC50 (THP-1 cells) was > 20 µM and the IC50 (PER-703 cells) was 4.3 µM. The IC50 (PER-785 cells) was 3.5 µM, the IC50 (PER-826 cells) was 2.6 µM and the IC50 (KOPN-8 cells) was 13.4 µM. The IC50 (MOLM-13 cells) was 5.6 µM, the IC50 (MV4;11 cells) was 2.7 µM and the IC50 (SEMK2 cells) was 5.1 µM. For the same compound, the IC50 (RS4;11 cells; Homo sapiens, RS4-11, 72 h) was 5.8 µM, the IC50 (RS4;11 cells) was 5.9 µM and the IC50 (CEM cells) was 11.4 µM. For the same compound, the IC50 (REH cells) was > 20 µM, the IC50 (Jurkat cells) was > 20 µM and the IC50 (KELLY cells) was > 20 µM. For the same compound, the IC50 (BE(2)C cells) was > 20 µM, the IC50 (HEY cells) was > 20 µM and the IC50 (27/87 cells) was > 20 µM. For the same compound, the IC50 (MCF-7 cells) was > 20 µM, the IC50 (H460 cells) was > 20 µM and the IC50 (LNCaP cells) was 14.9 µM. For the same compound, the IC50 (MRC-5 cells) was > 20 µM, the IC50 (WI-38 cells) was > 20 µM and the IC50 ([3]; Donor 1) was 5.4 µM. For the same compound, the IC50 ([3]; Donor 2) was 4.8 µM, the IC50 ([3]; Donor 3) was 4.2 µM and the IC50 [4] was 2.5 to 5.9 µM. The “induction of apoptosis (annexin V/7AAD)” value (PER-485 cells [5]) was “inducing apoptosis”.
`CCCCCCCOc1ccc(O)cc1` [AC-45594] was tested, and the “selective cytotoxicity towards KMT2A-r leukemia cells” value [6] was “did not display selective cytotoxicity”.
